Laboratory results: US20250367211A1, “RESCUE TREATMENT OF POST OPERATIVE NAUSEA AND VOMITING” (ACACIA PHARMA LIMITED, priority 2017, published 2025)

Columns and labels:
[1] = test system: adult patients with established PONV who have had prior PONV prophylaxis; assay: Study 1: rescue treatment of established PONV after failed prior prophylaxis; type: in vivo, human; conditions: for complete response (CR) rate: no emesis 30 min to 24 h and no rescue medication in 24 h, placebo 28.5%
Procedure: A randomised, double-blind, placebo-controlled study of amisulpride for IV injection as treatment of established postoperative nausea and vomiting, in patients who have had prior prophylaxis was conducted. The primary aim of the study was to compare the efficacy of 5 mg and 10 mg amisulpride to placebo as treatment of established PONV, in patients who have had prior PONV prophylaxis.
The study was performed in adult patients (≥18 years) with an expected duration of inhalational anaesthesia of at least 1 hour, who experienced PONV in the 24-hour period after surgery, having had prior PONV prophylaxis.
Amisulpride at a dose of 5 mg or 10 mg or matching placebo was given once by slow IV administration, over about 2 minutes.
The primary efficacy variable was the dichotomous variable: success or failure of initial PONV treatment, where success is defined as no emetic episodes (vomiting or retching) from 30 minutes to 24 hours after administration of study medication and no administration of antiemetic rescue medication at any time in the 24-hour period after study medication (a “complete response”).
The secondary efficacy variables included: • The occurrence and severity of nausea (a VRS score >0) and of significant nausea (a VRS score ≥4), including measures of the time course of nausea, such as area under the curve for nausea scores for time periods up to 24 hours. • The occurrence of vomiting (to include retching) after administration of study medication. • Use of anti-emetic rescue medication. • Time to failure of initial PONV treatment. • Sub-analyses of success and failure according to various parameters, including by time of onset of PONV relative to end of surgery and by sex.

[2] = test system: adult surgical patients at moderate-to-high risk of suffering PONV; assay: Phase II dose-ranging trial, IV amisulpride for PONV prophylaxis; type: in vivo, human
Procedure: In a multi-centre, double-blind, randomised, dose-ranging Phase II trial (conducted by the applicant), amisulpride was given intravenously to adult surgical patients at moderate-to-high risk of suffering PONV (prophylaxis), at doses of 1 mg, 5 mg and 20 mg, with a fourth group receiving placebo.

[3] = test system: patients with PONV who had not received prior prophylaxis; assay: Clinical trial, treatment of PONV in patients without prior prophylaxis; type: in vivo, human; conditions: no prior prophylaxis
Procedure: In another clinical trial conducted by the applicant, amisulpride at doses of 5 mg and 10 mg were compared with placebo for the treatment of PONV, in patients who had not received prior prophylaxis.

[4] = test system: adult surgical patients at high risk of suffering PONV; assay: Phase III trial, PONV prophylaxis in combination with a standard anti-emetic; type: in vivo, human; conditions: 5 mg in combination with a standard anti-emetic, 1147 evaluable patients, p<0.001 vs placebo plus standard anti-emetic (53%)
[5] = test system: adult surgical patients at moderate-to-high risk of suffering PONV; assay: Two Phase III placebo-controlled trials, PONV prophylaxis; type: in vivo, human; conditions: 5 mg, 626 evaluable patients, p<0.01 vs placebo (59%)
[6] = compared with the (R+)-enantiomer; cited from earlier work

Structure (SMILES) | complete response (CR) rate ([1]; 5 mg once by slow IV, 237 patients, p = 0.109) | complete response (CR) rate ([1]; 10 mg once by slow IV, 230 patients, p = 0.003) | efficacy as PONV rescue treatment, 10 mg versus 5 mg dose ([1]; patients with prior unsuccessful PONV prophylaxis) | incidence of PONV ([2]; 1 mg intravenously, p<0.05 vs placebo (69%)) [%] | incidence of PONV ([2]; 5 mg intravenously, p<0.01 vs placebo (69%)) [%] | incidence of PONV compared to placebo ([2]; 20 mg intravenously, placebo 69%, not stated as significant) | treatment of PONV versus placebo ([3]; 5 mg) | treatment of PONV versus placebo ([3]; 10 mg) | clinical efficacy, 5 mg versus 10 mg dose ([3]; treatment of PONV) | incidence of PONV [4] [%] | incidence of PONV [5] [%] | share of therapeutic activity of amisulpride [6]
CCN1CCCC1CNC(=O)c1cc(S(=O)(=O)CC)c(N)cc1OC (racemic) [amisulpride] | 33.8% (p = 0.109) | 41.7%, (p = 0.003) | more effective | 48 | 40 | lower | significantly better than placebo | significantly better than placebo | no difference | 42 | 48 | 
CCN1CCCC1CNC(=O)c1cc(S(=O)(=O)CC)c(N)cc1OC (stereo not drawn) [(S−)-amisulpride] |  |  |  |  |  |  |  |  |  |  |  | almost all of the therapeutic activity
